According to BigSolDB 2.1:

CC[C@H](CC[C@@H](C)[C@H]1CC[C@H]2[C@@H]3CC=C4C[C@@H](O)CC[C@]4(C)[C@H]3CC[C@]12C)C(C)C
solubility (mole fraction)
Details | in acetone | in ethanol | in ethyl acetate | in methanol | in n-hexane
278.15 K | 0.00274 | 0.0013 | 0.00447 | 0.000136 | 0.000862
283.15 K | 0.00322 | 0.00158 | 0.0053 | 0.000167 | 0.00103
288.15 K | 0.00379 | 0.0019 | 0.00627 | 0.000205 | 0.00123
293.15 K | 0.00446 | 0.00229 | 0.00738 | 0.000248 | 0.00147
298.15 K | 0.00525 | 0.00274 | 0.00872 | 0.000299 | 0.00173
303.15 K | 0.00616 | 0.00328 | 0.0103 | 0.000357 | 0.00205
308.15 K | 0.00724 | 0.00389 | 0.012 | 0.000427 | 0.0024
313.15 K | 0.00852 | 0.0046 | 0.014 | 0.000509 | 0.0028
318.15 K | 0.01 | 0.0054 | 0.0163 | 0.000606 | 0.00326
323.15 K | 0.0118 | 0.00632 | 0.019 | 0.00072 | 0.00377
328.15 K | 0.0139 | 0.00738 | – | 0.000855 | 0.00436
333.15 K | – | 0.00856 | – | – | 0.005
